test system: HIV-1; assay: NCI in vitro anti-HIV drug screen: XTT-formazan assay, protection of T4 lymphocytes (CEM) from HIV-1 cytopathic effects; type: cell-based, human immunodeficiency virus (HIV-1); conditions: Human immunodeficiency virus 1, CCRF-CEM, 144 h; HIV-1 infected CEM cells, 6 days, XTT; approximate values; read-out: EC50 (50% effective concentration against HIV cytopathic effects)
Experimental: Compounds of the present invention were evaluated for anti-HIV efficacy by the National Cancer Institute's (NCI) In Vitro Anti AIDS Drug Discovery Program.
The NCI procedure is fully described, for example, in a bulletin provided by the National Institutes of Health, National Cancer Institute, Bethesda, Md. 20892, all of which is incorporated herein by reference. As related in the NCI bulletin, the procedure is based on O. W. Weislow et al., "New soluble-formazan assay for HIV-1 cytopathic effects: application to high flux screening of synthetic and natural products for AIDS-antiviral activity", J. Natl. Cancer Inst. 81:577-586 (1989), and is used to test for compounds active against human immunodeficiency virus (HIV), and is designed to detect compounds active at any stage of the virus reproductive cycle. As further related in the NCI bulletin, the assay includes killing of T4 lymphocytes by HIV. Amounts of HIV are added to cells, with a minimum of two cycles of virus reproduction found to be necessary to obtain the required cell killing. Compounds that interact with virions, cells, or virus gene-products to interfere with viral activities will protect cells from cytolysis. All were compared with a positive (e.g., AZT-treated) control evaluation at the same time under identical conditions. The procedure is set forth as follows:
A candidate compound is first dissolved in a suitable solvent, preferably dimethyl sulfoxide, then diluted 1:100 in cell culture medium before preparing serial half-log10 dilutions. T4 lymphocytes (CEM cell line) are then added and after a brief interval HIV-1 is added, resulting in a 1:200 final dilution of the compound. Uninfected cells with the compound serve as a toxicity control, and infected and uninfected without the compound serve as basic controls. Cultures are then incubated at 37° in a 5% carbon dioxide atmosphere for 6 days. The tetrazolium salt, XTT, is added to all wells, and cultures are incubated to allow formazan color development by viable cells. Individual wells are analyzed spectrophotometrically to quantitate formazan product, and in addition are viewed microscopically for detection of viable cells and confirmation of protective activity. Drug-treated virus-infected cells are compared with drug-treated noninfected cells and with other appropriate controls (untreated infected and untreated noninfected cells, drug-containing wells without cells, etc.) on the same plate. Data are reviewed in comparison with other tests performed at the same time and a determination as to activity is made.

Row | Compound | EC50
1 | O=[N+]([O-])c1ccccc1S(=O)(=O)c1cc(Cl)cc2c1NCCC2 [Compound 47, 8-(2-nitrophenylsulfonyl)6chloro-1,2,3,4-tetrahydroquinoline] | 312 nM

same assay, conditions: Human immunodeficiency virus 1, CCRF-CEM, dose 2.00 × 10^-5 Molar; read-out: Percent of Protection

Row | Compound | inhibition at 20 µM
2 | O=[N+]([O-])c1ccccc1S(=O)(=O)c1cc(Cl)cc2c1NCCC2 [Compound 47, 8-(2-nitrophenylsulfonyl)6chloro-1,2,3,4-tetrahydroquinoline] | 86.2%

same assay, conditions: Human immunodeficiency virus 1, CCRF-CEM, dose 2.00 × 10^-6 Molar; read-out: Percent of Protection

Row | Compound | inhibition at 2 µM
3 | O=[N+]([O-])c1ccccc1S(=O)(=O)c1cc(Cl)cc2c1NCCC2 [Compound 47, 8-(2-nitrophenylsulfonyl)6chloro-1,2,3,4-tetrahydroquinoline] | 88.8%

same assay, conditions: Human immunodeficiency virus 1, CCRF-CEM, dose 2.00 × 10^-7 Molar; read-out: Percent of Protection

Row | Compound | inhibition at 0.2 µM
4 | O=[N+]([O-])c1ccccc1S(=O)(=O)c1cc(Cl)cc2c1NCCC2 [Compound 47, 8-(2-nitrophenylsulfonyl)6chloro-1,2,3,4-tetrahydroquinoline] | 25.3%

same assay, conditions: Human immunodeficiency virus 1, CCRF-CEM, dose 2.00 × 10^-8 Molar; read-out: Percent of Protection

Row | Compound | inhibition at 0.02 µM
5 | O=[N+]([O-])c1ccccc1S(=O)(=O)c1cc(Cl)cc2c1NCCC2 [Compound 47, 8-(2-nitrophenylsulfonyl)6chloro-1,2,3,4-tetrahydroquinoline] | 6%

same assay, conditions: Human immunodeficiency virus 1, CCRF-CEM, dose 6.32 × 10^-6 Molar; read-out: Percent of Protection

Row | Compound | inhibition at 6.32 µM
6 | O=[N+]([O-])c1ccccc1S(=O)(=O)c1cc(Cl)cc2c1NCCC2 [Compound 47, 8-(2-nitrophenylsulfonyl)6chloro-1,2,3,4-tetrahydroquinoline] | 102%

same assay, conditions: Human immunodeficiency virus 1, CCRF-CEM, dose 6.33 × 10^-7 Molar; read-out: Percent of Protection

Row | Compound | inhibition at 0.633 µM
7 | O=[N+]([O-])c1ccccc1S(=O)(=O)c1cc(Cl)cc2c1NCCC2 [Compound 47, 8-(2-nitrophenylsulfonyl)6chloro-1,2,3,4-tetrahydroquinoline] | 90%

same assay, conditions: Human immunodeficiency virus 1, CCRF-CEM, read-out: Percent of Protection, dose 6.34 × 10^-8 Molar

Row | Compound | inhibition at 0.0634 µM
8 | O=[N+]([O-])c1ccccc1S(=O)(=O)c1cc(Cl)cc2c1NCCC2 [Compound 47, 8-(2-nitrophenylsulfonyl)6chloro-1,2,3,4-tetrahydroquinoline] | 8.87%

same assay, conditions: Human immunodeficiency virus 1, CCRF-CEM, read-out: Percent of Protection, dose 6.35 × 10^-9 Molar

Row | Compound | inhibition at 0.00635 µM
9 | O=[N+]([O-])c1ccccc1S(=O)(=O)c1cc(Cl)cc2c1NCCC2 [Compound 47, 8-(2-nitrophenylsulfonyl)6chloro-1,2,3,4-tetrahydroquinoline] | 3%

same assay, conditions: Human immunodeficiency virus 1, Lymphocyte, dose 2.00 × 10^-5 Molar; read-out: Percent of Control, Infected

Row | Compound | activity at 20 µM
10 | O=[N+]([O-])c1ccccc1S(=O)(=O)c1cc(Cl)cc2c1NCCC2 [Compound 47, 8-(2-nitrophenylsulfonyl)6chloro-1,2,3,4-tetrahydroquinoline] | 86.2%

same assay, conditions: Human immunodeficiency virus 1, Lymphocyte, dose 2.00 × 10^-6 Molar; read-out: Percent of Control, Infected

Row | Compound | activity at 2 µM
11 | O=[N+]([O-])c1ccccc1S(=O)(=O)c1cc(Cl)cc2c1NCCC2 [Compound 47, 8-(2-nitrophenylsulfonyl)6chloro-1,2,3,4-tetrahydroquinoline] | 88.8%

same assay, conditions: Human immunodeficiency virus 1, Lymphocyte, dose 2.00 × 10^-7 Molar; read-out: Percent of Control, Infected

Row | Compound | activity at 0.2 µM
12 | O=[N+]([O-])c1ccccc1S(=O)(=O)c1cc(Cl)cc2c1NCCC2 [Compound 47, 8-(2-nitrophenylsulfonyl)6chloro-1,2,3,4-tetrahydroquinoline] | 25.3%

same assay, conditions: Human immunodeficiency virus 1, Lymphocyte, dose 2.00 × 10^-8 Molar; read-out: Percent of Control, Infected

Row | Compound | activity at 0.02 µM
13 | O=[N+]([O-])c1ccccc1S(=O)(=O)c1cc(Cl)cc2c1NCCC2 [Compound 47, 8-(2-nitrophenylsulfonyl)6chloro-1,2,3,4-tetrahydroquinoline] | 6%
